Experiments:
[1] = Solid-liquid equilibrium temperature; details: Crystal, visual observation
[2] = Liquid-liquid equilibrium temperature; details: Nematic liquid crystal, visual observation

CCCCCOc1ccc(-c2ccc(C#N)cc2)cc1 [4'-pentoxy-4-cyanobiphenyl]
Details | Liquid-liquid equilibrium temperature, [2] [K] | Solid-liquid equilibrium temperature, [1] [K]
399 kPa | 341.58 | 326.84
1399 kPa | 341.96 | 327.21
2400 kPa | 342.38 | 327.52
3001 kPa | – | 327.72
3400 kPa | – | 327.86
3401 kPa | 342.75 | –
3901 kPa | 342.91 | –
4401 kPa | 343.13 | 328.2
4902 kPa | 343.32 | –
5401 kPa | – | 328.54
5402 kPa | 343.51 | –
6402 kPa | – | 328.84
6403 kPa | 343.9 | –
7403 kPa | – | 329.23
7404 kPa | 344.3 | –
8403 kPa | – | 329.55
8404 kPa | 344.7 | –
9405 kPa | 345.1 | 329.86
10005 kPa | 345.33 | 330.08
